# Measured values from patent US20160166507A1, “NANOEMULSIONS OF HYDROPHOBIC PLATINUM DERIVATIVES” (NEMUCORE MEDICAL INNOVATIONS, INC., priority 2013, published 2016).
# Key:
# [1] = system: SKOV-3 Ovarian Cancer Cells; assay: MTT cytotoxicity assay with combination index analysis; type: cell-based, human; conditions: for Degree of Combination Effect: Pt complex with CER
# Procedure: In order to determine if the nanoemulsion formulations according to the disclosure produce a cytotoxic effect, the following experiments were done on SKOV3 cells.
# A tetrazolium (MTT) assay was performed, which measures the activity of cellular enzymes that reduces the MTT dye to insoluble formazan. SKOV3 cells were treated with corresponding test nanoemulsions or control solutions as indicated below in Table VI. Polyethylenimine at 50 μg/ml was used as a positive control for cytotoxicity. The effect of cis-Pt in solution, nanoemulsion formulations, and EGFR-targeted nanoemulsion formulations of the disclosure on the viability of ovarian SKOV3 cells were studied and measured after 72 hr treatment. After the completion of treatment, cells were incubated with MTT reagent (50 μg/well) for 2 hr. The resulting formazan crystals were dissolved in dimethyl sulfoxide ([…]) and measured at 570 nm in the Plate reader (Synergy HT, Biotek Instruments, Winooski, Vt.).
# Values are shown as mean±SD, n=8. All IC50 values were obtained by analyzing the MTT assays results using Graphpad Prism 5 scientific data analysis software.
# The optimum concentration of multiple chemotherapeutic agents combined in the nanoemulsion formulations of the present disclosure can be determined by calculating the combination index from the dose response curves of the single agents (Chou (2006) Pharmacol. Rev. 58(3): 621-681). This method uses the isobologram equation below to determine combination index (CI): […]
# where, “a” is the primary therapeutic IC50 in combination with secondary therapeutic at concentration “b.” “A” is the primary therapeutic IC50 without secondary therapeutic; and “B” is the secondary therapeutic IC50 in the absence of primary therapeutic. The CI represents the degree of interaction between two drugs regardless of mechanism. […]
# For the nanoemulsion formulations of the present disclosure, the ratio of Pt:CER was determined in order to identify ratios that could reduce the IC50 of Pt.
# [2] = cited from earlier work
# [3] = system: SKOV3 human ovary cancer cells; assay: In vivo therapeutic efficacy in mice injected ip with SKOV3 cells; design: species or system Nu/Nu female mice
# Procedure: In order to determine if the nanoemulsion formulations according to the disclosure produce therapeutic efficacy against cancer in vivo, the following experiment was performed. Orthotropic tumors were developed in 30 Nu/Nu female mice, each weighing approximately 20 g (Charles River Laboratories, Cambridge, Mass.). The mice were injected intraperitoneally (ip) with 4×10^6 SKOV3 human ovary cancer cells (ATCC, Manassas, Va.) suspended in phosphate buffered saline100 μl PBS. The 30 mice were divided into 3 test groups of 10 individual mice. Each mouse was then dosed every 7 d for 5 wk with either nothing (control group) or 1 of 2 test compounds. The first test compound (cisplatin) was administered as a comparative sample in 5 mg/kg doses. The second test compound (EGFR-targeted nanoemulsion formulation containing Pt-MMA and ceramide in a 1:5 molar ratio) was administered in 3 cycles of 5 mg/kg platinum and an additional 2 cycles of 7.5 mg/kg platinum. The doses of Pt-MMA (21 mg/kg) and cis-Platin (5 mg/kg) were calculated so that animals received equivalent amounts of Pt. The survival time of each group of mice was determined and the median survival time (days) calculated using Graphpad Kaplan-Meyers survival analysis software on the basis of the observed survival time of each mouse.
# [4] = dosed every 7 d for 5 wk, SKOV3, Nu/Nu mice
compound,measurement,setting,value
"CCCCCCCCCCCCC/C=C/[C@H](O)[C@@H](CO)NC(=O)CCCCC [CER in Solution, C6-ceramide]",IC50,"[1]; Homo sapiens, SK-OV-3, SKOV-3 cells, MTT, 72 hr treatment, mean±SD, n=8, read-out: IC50 (nM), inhibition of growth",10000 nM
N.N.O=C([O-])C1(C(=O)[O-])CCC1.[Pt+2] [carboplatin],half life (published values),[2],50.4 min
"N.N.[Cl][Pt][Cl] [Cisplatin in Solution, Cis-dichlorodiammine Pt (II)]",Median Survival,"[3]; Kaplan-Meyers analysis, 10 mice per group",28 days
same,Average Tumor Size at 21 Days (mm^3),[3]; [4],640 ± 314 mm^3
same,Time for First Tumor to Reach 1000 mm^3,[3]; [4],17 days
cis-Diamine Pt (II) Chloride Monomyristic Acid [Cisplatin-mono-myristate],Degree of Combination Effect,[1],synergistically
cis-Diamine Pt (II) Chloride Monopalmitic Acid [Cisplatin-mono-palmitate],Degree of Combination Effect,[1],synergistically
